Target: T1, EthABDB2 (EthAB2 + EthBB2 + EthDB2) (Rhodococcus sp. B2, UniProt A0A8A6W4L4)
T1 construct: gene ethB; 43 kDa (EthA), 44 kDa (EthB), 10 kDa (EthD); mixed in vitro; EthB has ten residue differences from EthB of strain T3-1; with Ferredoxin reductase EthA; EthD protein (10 kDa; unknown function, acts as ferredoxin)
Test: reconstituted enzyme assay, HPLC substrate loss; GC-MS of product CMEPA
Format: biochemical
Conditions: 0.5 mM substrate; 1 mM NADH, 0.5 mM Fe2+, 1 mM MgCl2, 20 mM Tris-HCl pH 7.5, 30 °C; N-dealkoxymethylation

T1 sequence (A0A8A6W625 entry or part of it): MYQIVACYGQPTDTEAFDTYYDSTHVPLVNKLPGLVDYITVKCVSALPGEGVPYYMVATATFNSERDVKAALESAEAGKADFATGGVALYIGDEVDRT
T1 sequence (A0A8A6W4L4 entry or part of it): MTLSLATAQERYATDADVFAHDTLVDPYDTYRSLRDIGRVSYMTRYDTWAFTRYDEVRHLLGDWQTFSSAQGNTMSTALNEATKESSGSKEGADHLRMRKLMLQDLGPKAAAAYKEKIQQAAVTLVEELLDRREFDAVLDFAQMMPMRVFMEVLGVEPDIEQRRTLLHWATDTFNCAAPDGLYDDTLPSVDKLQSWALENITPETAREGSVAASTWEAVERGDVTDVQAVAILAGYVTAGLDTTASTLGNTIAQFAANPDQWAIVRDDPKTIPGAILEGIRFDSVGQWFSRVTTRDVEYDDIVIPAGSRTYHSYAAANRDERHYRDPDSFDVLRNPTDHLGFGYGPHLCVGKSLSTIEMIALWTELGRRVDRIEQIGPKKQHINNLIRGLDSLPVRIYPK
T1 sequence (A0A8A6W576 entry or part of it, further chain): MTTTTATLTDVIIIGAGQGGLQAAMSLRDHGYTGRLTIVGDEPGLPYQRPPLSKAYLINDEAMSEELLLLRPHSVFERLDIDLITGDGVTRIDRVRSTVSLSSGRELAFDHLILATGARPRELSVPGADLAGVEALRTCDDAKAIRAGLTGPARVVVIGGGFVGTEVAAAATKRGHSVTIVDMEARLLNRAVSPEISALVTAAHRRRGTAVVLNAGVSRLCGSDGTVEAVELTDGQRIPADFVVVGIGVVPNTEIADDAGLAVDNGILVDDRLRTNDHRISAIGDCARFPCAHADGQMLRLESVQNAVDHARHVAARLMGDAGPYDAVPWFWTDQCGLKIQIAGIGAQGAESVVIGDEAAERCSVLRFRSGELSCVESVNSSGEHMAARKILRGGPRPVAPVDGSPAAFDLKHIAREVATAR

## CCc1cccc(C)c1N(COC(C)C)C(=O)CCl [propisochlor]
  reconstituted enzyme assay, HPLC substrate loss; GC-MS of product CMEPA: EthABDB2 performed N-dealkoxymethylation to acetochlor, alachlor, propisochlor and butachlor, O-dealkylation to pretilachlor

— article PMC7934444, “A bifunctional enzyme belonging to cytochrome P450 family involved in the O-dealkylation and N-dealkoxymethylation toward chloroacetanilide herbicides in Rhodococcus sp. B2” (Microbial Cell Factories, 2021)
